Experimental data: EP0393512A1, “New 1,3-dioxolane-2-yl derivatives of 2-picolylamine” (J. URIACH & CIA. S.A., priority 1989, dated 1990)
Read-outs that look alike come from different tables or passages of the source.

Experiments:
[1] = test system: hypotension induced by PAF; test: Inhibition of the hypotensive effect induced by PAF in normotense rats; type: in vivo, Sprage Dawley rats; settings: Rattus norvegicus, iv; anesthetized male rats; compound given through the femoral vein 3 min before PAF (0.5 mcg/Kg, i.v.); average arterial pressure; read-out: IC₅₀
Procedure: Inhibition of the hypotensive effect induced by PAF in normotense rats. Male Sprage Dawley rats, of 180-220 g of weight, anesthetized with sodium pentobarbital (50 mg/Kg, i.p. 1 mL/100 g) have been used. In order to measure the average arterial pressure, a polyethylene catheter is introduced into the carotid artery. The arterial pressure is recorded with the help of a transducer connected with a R611 Beckman polygraph. The tested compounds are administered through the femoral vein 3 min before the injection of PAF (0.5 mcg/Kg, i.v.).

[2] = test system: platelet aggregation induced by PAF; test: Inhibition of platelet aggregation induced by PAF (rabbit platelet rich plasma, Born nephelometric technique); type: cell-based, New Zealand albino rabbits; settings: concentration needed to inhibit platelet aggregation by 50%, PAF (C₁₈) 16 nM final, read-out: IC₅₀
Procedure: Inhibition of platelet aggregation induced by PAF.
The blood is obtained by cardiac puncture of male New Zealand albino rabbits (between 2 and 2.5 Kg of weight) and coagulation is prevented by adding 1 part of 3.16% sodium citrate dihydrate in 9 parts of blood. The platelet rich plasma (PRP) is prepared by blood centrifugation at 250xg for 10 min. at 4°C and it is diluted with platelet poor plasma (PPP) by additional centrifugation at 3000xg for 10 min. The amount of platelets is adjusted to […]. The platelet aggregation induced by PAF (C₁₈; prepared in our laboratory) (16 nM, final) is determined by the Born nephelometric technique (J. Physiol., 1962, 162 67) using a aggregometer Chrono-log 500.
The activities of the inhibitors are expressed as IC₅₀, that is to say the concentration of the drug needed to inhibit the platelet aggregation by 50%.

Row | IC50 ([2]; Oryctolagus cuniculus) [µM] | IC50 [2] [µM] | Compound | ED50 [1] [mg/kg]
1 | 0.11 |  | CCCCCCCCCCCCCCCCCCOCC1COC(COC(=O)N(Cc2cccc[n+]2CC)C(C)=O)O1.[I-] (centres unmarked) [Compound 14, 2-[N-Acetyl-N-[((5-octadecyloxymethyl-1,3-dioxolane-2-yl)methoxy)carbonyl]aminomethyl]-1-ethylpyridinium iodide] | < 0.05
2 | 0.15 |  | CCCCCCCCCCCCCCOCC1COC(COC(=O)N(Cc2cccc[n+]2CC)C(C)=O)O1.[I-] (centres unmarked) [Compound 17, 2-[N-Acetyl-N-[((5-tetradecyloxymethyl-1,3-dioxolane-2-yl)methoxy)carbonyl]aminomethyl]-1-ethylpyridinium iodide] | 0.2
3 | < 0.05 |  | CCCCCCCCCCCCCCCNC(=O)OCC1COC(COC(=O)N(Cc2cccc[n+]2CC)C(C)=O)O1.[I-] (centres unmarked) [Compound 20, 2-[N-Acetyl-N-[((5-pentadecylcarbamoyloxymethyl-1,3-dioxolane-2-yl)methoxy)carbonyl]aminomethyl]-1-ethylpyridinium iodide] | 0.093
4 | < 0.05 |  | CCCCCCCCCCCCCCCCCNC(=O)OCC1COC(COC(=O)N(Cc2ccccn2)C(C)=O)O1 (centres unmarked) [Compound 22, 2-[N-Acetyl-N-[((5-heptadecylcarbamoyloxymethyl-1,3-dioxolane-2-yl)methoxy)carbonyl]aminomethyl] pyridine] | < 0.05

Second part, the molecule before the results:

Row | Compound | IC50 ([2]; Oryctolagus cuniculus) [µM] | IC50 [2] [µM] | ED50 [1] [mg/kg]
5 | CCCCCCCCCCCCCCCCCC1COC(COC(=O)N(Cc2cccc[n+]2CC)C(C)=O)O1.[I-] (centres unmarked) [Compound 3, 2-[N-Acetyl-N-[((5-heptadecyl-1,3-dioxolan-2-yl)methoxy)carbonyl]aminomethyl]-1-ethylpyridinium iodide] | < 0.05 |  | 0.074
6 | CCCCCCCCCCCCCCCCOCC1COC(COC(=O)N(Cc2ccccn2)C(C)=O)O1.Cl (centres unmarked) [Compound 6, 2-[N-Acetyl-N-[((5-hexadecyloxymethyl-1,3-dioxolane-2-yl)methoxy)carbonyl]aminomethyl] pyridine hydrochloride] | 4 |  | > 5
7 | CCCCCCCCCCCCCCCCOCC1COC(COC(=O)N(Cc2cccc[n+]2C)C(C)=O)O1.[I-] (centres unmarked) [Compound 7, 2-[N-Acetyl-N-[((5-hexadecyloxymethyl-1,3-dioxolane-2-yl)methoxy)carbonyl]aminomethyl]-1-methylpyridinium iodide] | 1 |  | 0.32
8 | CCCCCCCCCCCCCCCCOCC1COC(COC(=O)N(Cc2cccc[n+]2CC)C(C)=O)O1.[I-] (centres unmarked) [Compound 8, 2-[N-Acetyl-N-[((5-hexadecyloxymethyl-1,3-dioxolane-2-yl)methoxy)carbonyl]aminomethyl]-1-ethylpyridinium iodide] | < 0.05 |  | < 0.05
9 | CCCCCCCCCCCCCCCCOCC1COC(COC(=O)N(Cc2cccc[n+]2CC)C(C)=O)O1.[Cl-] (centres unmarked) [Compound 9, 2-[N-Acetyl-N-[((5-hexadecyloxymethyl-1,3-dioxolane-2-yl)methoxy)carbonyl]aminomethyl]-1-ethylpyridinium chloride] |  | < 0.05 | < 0.05
10 | CCCCCCCCCCCCCCCCOCC1COC(COC(=O)N(Cc2cccc[n+]2CC)C(=O)OCC)O1.[I-] (centres unmarked) [Compound 11, 2-[N-Ethoxycarbonyl-N-[((5-hexadecyloxymethyl-1,3-dioxolane-2-yl)methoxy)carbonyl]aminomethyl]-1-ethylpyridinium iodide] | 0.14 |  | 0.095
